The text below walks through data of publication PMC11989179, “Odor-Binding Protein 2 in Apis mellifera ligustica Plays Important Roles in the Response to Floral Volatiles Stimuli from Melon and Tomato Flowers” (International Journal of Molecular Sciences, 2025).

As usually defined, the Ki is the equilibrium dissociation constant of an inhibitor or competing ligand from its target. One may read the IC50 as the midpoint of a concentration-inhibition curve.

Series [1] addresses T1, AmelOBP2 (Apis mellifera, UniProt A0A8U0WQ64). The series can be described thus: Fluorescence competitive binding assay with 1-NPN as probe. Further details: species or system Apis mellifera ligustica. The settings on record: for Ki: Ki = [IC50]/(1 + [1-NPN]/K1-NPN), read-out: Ki (binding constant); for IC50: odor standard concentration at which AmelOBP2/1-NPN fluorescence is reduced to half; for binding ability to AmelOBP2 (in words): fluorescence competitive binding. As for the experimental part: The binding ability of the recombinant protein AmelOBP2 to the 14 tomato and 25 melon floral volatiles was determined using a fluorescence competitive binding assay. The IC50 values of the odor standard compounds obtained from the fluorescence competitive binding curve (Figure 6) and the binding constant Ki between AmelOBP2 and the odor standard compounds are shown in Table 1.
(§1) The ability of AmelOBP2 to bind to floral volatiles in tomato and melon greenhouses was determined using an RF-5301PC fluorescence spectrophotometer (Shimadzu, Japan) with […] (1-NPN) (TCI, Japan) as the fluorescence probe (Table A5). The parameters of the RF-5301PC fluorescence spectrophotometer are set as follows: the emission wavelength range is 360–500 nm, the excitation wavelength is 337 nm, and the slit width is 3 nm. This process was similar to that described by Du et al.. Data were processed using GraphPad Prism 8.0. The binding constant (Ki) of AmelOBP2 and odor volatiles were computed using the following equation [26]:Ki = [IC50]/(1 + [1-NPN]/K1-NPN)
IC50 refers to the concentration of the odorant at which the fluorescence intensity of the AmelOBP2/1-NPN complex was reduced by 50%. 1-NPN refers to the concentration of unbound 1-NPN, while K1-NPN refers to the binding constant of the AmelOBP2/1-NPN complex. The smaller the Ki, the stronger the binding ability of the substance to the recombinant protein. Ki values ranging from 0 to 5µM indicate strong binding ability with AmelOBP2.

Series [2] deals with T1, AmelOBP2. The experiment in a line: Binding curve and Scatchard plot of fluorescence probe 1-NPN to recombinant AmelOBP2. Further details: species or system Apis mellifera ligustica. Conditions: Scatchard plot; excitation 337 nm, emission maximum 405 nm; read-out: binding constant between AmelOBP2 and the probe. As for the experimental part:
At an excitation wavelength of 337 nm, no clear fluorescence signal was observed from the AmelOBP2 protein working solution. By adding 3 μL of the 1-NPN solution to the protein working solution successively, the maximum fluorescence intensity was found at 405 nm, and the fluorescence intensity increased with the increase in the probe concentration. The resulting data were then fitted using regression and Scatchard processing to produce a combination curve and linear equation for AmelOBP2 and 1-NPN (Figure 5).
as §1

Series [3] has as its system Apis mellifera ligustica antennae. The series can be described thus: Electroantennogram (EAG) response to compounds under RNAi silencing. Type of series: in vivo. Details: concentration or dose not given beside the values. Conditions: decrease of EAG response in honeybees fed siAmelOBP2. The source says: To clarify the physiological function of amelobp2 in the detection of floral volatiles in honeybees, we selected the following five volatiles: e-2-hexenal, e-2-octenal, 1-nonanal, 2-methyl-5-(1-methyl ethenyl)-cyclohexanone, and methyl benzene. Specifically, e-2-hexenal and e-2-octenal are volatiles of melon flowers; 2-methyl-5-(1-methyl ethenyl)-cyclohexanone and methyl benzene are volatiles of tomato flowers; and 1-nonanal is both a melon flower volatile and a tomato flower volatile. The antennal electrical activity of the honeybees was measured after feeding with siAmelOBP2.
Based on the results of the fluorescence competitive binding tests and our previous research involving EAG tests, odor-standard compounds were identified for testing (Table A5). The optimal siRNA and silencing time were determined by an experiment and fed to honeybees. The EAG response was measured using an EAG insect antennal potential measurement system (Syntech, Netherlands). Each measurement was repeated using three antennae. The results of the antennal potential measurements were expressed as the EAG relative response value (rEAG), which was calculated as follows:rEAG = (EAG (X) − EAG (std))/EAG (std)(1)
EAG (X) represents the response amplitude (mV) of the EAG to a given compound, while EAG (std) represents the response amplitude (mV) of the EAG to the reference liquid paraffin at each recording stage.

The next series deals with AmelOBP2 mRNA. The series can be described thus: RNAi silencing effect on AmelOBP2 mRNA after siRNA feeding (qRT-PCR). Type of series: in vivo, Apis mellifera ligustica. The settings on record: 8 μg per bee, 20-d-old honeybees. Here is the method:
Total RNA and cDNA were obtained according to Du et al.. The obtained cDNA was subjected to qRT-PCR using the SYBR fluorescent dye method (Takara, Japan) (Table A1). The primers were synthesized by Sangon Biotech (Table A2). Data processing refers to Livak and Schmittgen (2^−ΔΔCt method).
Honeybees were collected at 20 d of age from an apiary at the College of Animal Science, Shanxi Agricultural University. Honeybees were randomly divided into 4 groups (n = 40) and starved in an incubator for 30 min (65–70% relative humidity; 28 ± 1 °C). Honeybees were fed with siAmelOBP2 (8 μg per bee dissolved in sucrose solution); the siAmelOBP2 are recorded as siAmelOBP2-1 (79 bp) and siAmelOBP2-2 (329 bp). We used siNC and 30% sucrose solution as the controls. After feeding, the honeybees were placed back in the incubator. At 24, 48, 72, and 96 h, the honeybees were captured randomly in each group, and the silencing effect of RNAi was assessed using qRT-PCR.
A general note: Real-time PCR tracks product formation cycle by cycle.

T1 sequence (A0A8U0WQ64 entry or part of it): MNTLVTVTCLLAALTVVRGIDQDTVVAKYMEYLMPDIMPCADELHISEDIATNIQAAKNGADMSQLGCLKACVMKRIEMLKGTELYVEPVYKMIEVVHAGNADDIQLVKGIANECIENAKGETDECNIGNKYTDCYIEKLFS

As to `CC=Cc1ccc(OC)c(OC)c1` [1,2-dimethoxy-4-(1-propenyl)-benzene], at AmelOBP2 [1], the inhibition constant (Ki) turned out to be 7.68 µM and the concentration for half-maximal inhibition (IC50) worked out at 17.2 µM.
Taken in the same sequence, the figures for `CC(C)(C)c1cccc(C(C)(C)C)c1` [1,3-bis (1,1-dimethyl ethyl)-benzene] were 2.85 µM and 6.37 µM.
For `Cc1cccc(C)c1` [1,3-dimethyl-benzene] the same measures were 11 µM and 24.6 µM.
Turning to `c1ccc(Nc2cccc3ccccc23)cc1` [1-NPN], the Kd at AmelOBP2 [2] worked out at 2 µM.
As for `C=C(C)c1ccc(C)cc1` [1-methyl-4-(1-methylethenyl)-benzene], on AmelOBP2 [1], the inhibitory constant (Ki) worked out at 6.23 µM and the half-inhibitory concentration (IC50) turned out to be 13.9 µM.
With `CCCCCCCCC=O` [1-nonanal], at AmelOBP2 [1], the Ki worked out at 5.26 µM and the half-maximal inhibitory concentration (IC50) came out at 11.8 µM. Moreover, the “Silencing Efficiency (EAG response)” value in series [3] is listed as 37.28%.
With `CC(C)C(=O)OCC(C)(C)C(OC(=O)C(C)C)C(C)C` (centres unmarked) [2,2,4-trimethyl-1,3-pentanediol diisobutyrate], on AmelOBP2 [1], the Ki turned out to be 4.92 µM and the IC50 was determined as 11 µM.
As to `Cc1ccc(C)c(C=O)c1` [2,5-dimethyl-benzaldehyde], on AmelOBP2 [1], the Ki is 7.12 µM and the IC50 is 15.9 µM.
On to `C=C(C)C1CCC(C)C(=O)C1` (centres unmarked) [2-methyl-5-(1-methylethenyl)-cyclohexanone], for which, at AmelOBP2 [1], the Ki is 6.03 µM and the half-maximal inhibitory concentration (IC50) amounted to 13.5 µM. The “Silencing Efficiency (EAG response)” value in series [3] worked out at 32.48%.
Consider `C=CC(C)(O)CCC=C(C)C` (centres unmarked) [3,7-dimethyl-1,6-octadien-3-ol], for which, on AmelOBP2 [1], the Ki came to 7.01 µM and the 50% inhibitory concentration (IC50) stood at 15.7 µM.
Taken in the same sequence, the figures for `CC1=CC(=O)C(C(C)C)CC1` (centres unmarked) [3-methyl-6-(1-methylethyl)-2-cyclohexen-1-one] were 11.2 µM and 25 µM.
`CCCCCC=CC(C)=O` [3-nonen-2-one]: at AmelOBP2 [1], the inhibitory constant (Ki) stood at 4.3 µM and the IC50 amounted to 9.63 µM.
For `O=CC=Cc1ccccc1` [3-phenyl-2-propenal] the same measures were 5.69 µM and 12.7 µM.
As for `C=CC(=C)CCCC(=C)C` [alpha-myrcene], on AmelOBP2 [1], the inhibition constant Ki turned out to be 2.76 µM and the IC50 came out at 6.18 µM.
In the case of `O=Cc1ccccc1` [benzaldehyde], on AmelOBP2 [1], the inhibitory constant (Ki) turned out to be 3.74 µM and the concentration for half-maximal inhibition (IC50) was 8.37 µM.
Taken in the same sequence, the figures for `O=CCc1ccccc1` [benzeneacetaldehyde] were 4.55 µM and 10.2 µM.
For `O=CCCc1ccccc1` [benzenepropanal] the same measures were 7.3 µM and 16.3 µM.
For `CCCCCCCCCC=O` [decanal] the same measures were 3.72 µM and 8.32 µM.
As to `COC(=O)c1ccccc1C(=O)OC` [dimethyl phthalate], on AmelOBP2 [1], the inhibition constant Ki was found to be 5.54 µM and the IC50 came to 12.4 µM.
For `CCCCCCCCCCCC=O` [dodecanal] the same measures were 1.05 µM and 2.35 µM.
Taken in the same sequence, the figures for `CCCCCCC/C=C/C=O` [e-2-decenal] were 2.42 µM and 5.41 µM.
Take `CCC/C=C/C=O` [e-2-hexenal]: at AmelOBP2 [1], the Ki was found to be 2.83 µM and the IC50 came out at 6.33 µM. The “Silencing Efficiency (EAG response)” value in series [3] came out at 34.64%.
Taken in the same sequence, the figures for `CCCCC/C=C/C=O` [e-2-octenal] were 7.45 µM, 16.7 µM and 55.20%.
Turning to `CC1=CCC(C(C)C)=CC1` [gamma-terpinene], on AmelOBP2 [1], the Ki was 4.16 µM and the half-inhibitory concentration (IC50) is 9.31 µM.
Take `CCCCCCCCCCCCCCCCCCCCC` [heneicosane]: at AmelOBP2 [1], the Ki came out at 21.7 µM, the “binding ability to AmelOBP2 (in words)” value is “relatively weak binding ability” and the IC50 came out at 48.6 µM.
On to `CCCCCCCCCCCCCCCCC` [heptadecane], for which, on AmelOBP2 [1], the Ki amounted to 16.7 µM and the half-inhibitory concentration (IC50) worked out at 37.3 µM.
Turning to `CCCCCCCCCCCCCCCC` [hexadecane], on AmelOBP2 [1], the Ki turned out to be 30.6 µM, the “binding ability to AmelOBP2 (in words)” value is “relatively weak binding ability” and the IC50 turned out to be 68.6 µM.
Turning to `CCCCCCCCCCCCCCCC(=O)OCC` [hexadecanoic acid, ethyl ester], at AmelOBP2 [1], the inhibitory constant (Ki) is 12.8 µM, the “binding ability to AmelOBP2 (in words)” value is on record as “exhibited binding ability” and the IC50 was determined as 28.8 µM.
As to `Cc1ccccc1` [methyl benzene], on AmelOBP2 [1], the Ki is 8.3 µM and the IC50 was determined as 18.6 µM. The “Silencing Efficiency (EAG response)” value in series [3] is on record as 28.76%.
In the case of `CCCCCCCCCCCCCCCC(=O)OC` [methyl palmitate], the “binding ability to AmelOBP2 (in words)” value at AmelOBP2 [1] is “exhibited binding ability”.
Regarding `CCCCCCCCCCCCCCCCCCC` [nonadecane], at AmelOBP2 [1], the inhibition constant (Ki) worked out at 14.7 µM and the IC50 was 33 µM.
Take `Cc1ccc(C(C)C)cc1` [p-cymene]: at AmelOBP2 [1], the Ki was 3.58 µM and the IC50 was 8.02 µM.
For `CCCCCCCCCCCCCCCCCCCCCCCC` [tetracosane] the same measures were 13.2 µM and 29.6 µM.
`CCCCCCCCCCCCCC` [tetradecane]: at AmelOBP2 [1], the Ki was found to be 8.06 µM and the half-maximal inhibitory concentration (IC50) was determined as 18 µM.
Turning to `CC(=O)/C=C/C1=C(C)CCCC1(C)C` [trans-β-ionone], at AmelOBP2 [1], the Ki came to 4.21 µM and the 50% inhibitory concentration (IC50) was found to be 9.43 µM.
Taken in the same sequence, the figures for `C=C1CC/C=C(\C)CC[C@@H]2[C@@H]1CC2(C)C` [β-caryophyllene] were 4.84 µM and 10.8 µM.
In the case of `C=C/C(C)=C/CC=C(C)C` [β-ocimene], at AmelOBP2 [1], the inhibitory constant (Ki) is 3.75 µM and the IC50 is 8.4 µM.
On to hexadecenoic acid, for which, on AmelOBP2 [1], the Ki was found to be 5.29 µM and the IC50 was determined as 11.8 µM.
For phytol the same measures were 16.2 µM and 36.3 µM.
For “siAmelOBP2-1: siRNA against AmelOBP2 (79 bp); F: GCAAAGUACAUGGAGUAUUTT, R: AAUACUCCAUGUACUUUGCTT (chemistry not given here)”, the “silencing efficiency (AmelOBP2 mRNA)” value with AmelOBP2 mRNA (72 h after siRNA feeding) is 62.86%.
As to “siAmelOBP2-2: siRNA against AmelOBP2 (329 bp); F: GGAUCGCGAAUGAGUGCAUTT, R: AUGCACUCAUUCGCGAUCCTT (chemistry not given here)”, the “silencing efficiency (AmelOBP2 mRNA)” value in the series on AmelOBP2 mRNA (24 h after siRNA feeding) is reported as 58.87%; in the series on AmelOBP2 mRNA (48 h after siRNA feeding), 47.35%; in the series on AmelOBP2 mRNA (72 h after siRNA feeding), 79.83%; with AmelOBP2 mRNA (96 h after siRNA feeding), 67.19%.
